Each structure is given as a SMILES string.

Broadly, the AC50 is the midpoint of the concentration-response curve, whichever way the signal moves.

For the first assay, the target named is T1, human PAH with the R408W mutation (A375 R408W cells) (Homo sapiens, UniProt P00439, R408W).
T1 construct: expressed in transfected cells
T1 sequence (P00439 1-452 R408W): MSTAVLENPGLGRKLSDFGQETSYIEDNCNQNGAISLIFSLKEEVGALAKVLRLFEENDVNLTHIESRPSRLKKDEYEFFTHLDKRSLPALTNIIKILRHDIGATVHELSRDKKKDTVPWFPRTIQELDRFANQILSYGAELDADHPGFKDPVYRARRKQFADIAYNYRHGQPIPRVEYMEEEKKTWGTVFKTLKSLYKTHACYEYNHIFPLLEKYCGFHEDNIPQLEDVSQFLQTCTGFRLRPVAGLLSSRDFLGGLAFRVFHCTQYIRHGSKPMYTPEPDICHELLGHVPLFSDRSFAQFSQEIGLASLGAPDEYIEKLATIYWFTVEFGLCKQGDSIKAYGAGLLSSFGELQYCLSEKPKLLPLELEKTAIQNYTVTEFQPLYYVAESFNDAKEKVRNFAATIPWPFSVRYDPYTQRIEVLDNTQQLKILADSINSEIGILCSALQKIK
The assay is described as follows: Cell Based Phenylalanine Flux Assay. The settings on record: A375 R408W cells; 24 hrs with compound, then 20 μM sepiapterin and 800 μM 13C9,15N-Phenylalanine for 4 hours; 13C-Tyrosine by LC-MS; average where tested multiple times. In short, it runs like this: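 A375 cells stably expressing human PAH R408W treated 24 h at 37° C with a 10-point 2-fold dose curve in duplicate, 0.5% DMSO. Then 20 μM sepiapterin and 800 μM 13C9,15N-Phe added for 4 h; 13C-Tyr in media measured by LC-MS to give AC50.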
With `O=C(c1cnn2cc(N3CCOCC3)c(Cl)cc12)N1CCc2[nH]cnc2[C@H]1c1nc2cc(F)ccc2o1` [Example 175, (S)-(5-chloro-6-morpholinopyrazolo[1,5-a]pyridin-3-yl)(4-(5-fluorobenzo[d]oxazol-2-yl)-6,7-dihydro-1H-imidazo[4,5-c]pyridin-5(4H)-yl)methanone], the half-maximal activity concentration (AC50) lay in the range of 500 to 1000 nM. Take `CN1CCN(c2ccc3c(C(=O)N4CCc5[nH]cnc5[C@H]4c4nc5cccc(F)c5o4)cnn3c2)CC1` [Example 363, (S)-(4-(7-fluorobenzo[d]oxazol-2-yl)-6,7-dihydro-1H-imidazo[4,5-c]pyridin-5(4H)-yl)(6-(4-methylpiperazin-1-yl)pyrazolo[1,5-a]pyridin-3-yl)methanone]: the AC50 was not above 500 nM. The same measure, in the same setting: with `O=C(c1ocnc1C(F)F)N1CCc2[nH]cnc2[C@H]1c1nc2cccc(OC(F)(F)F)c2o1` [Example 532, (S)-(4-(difluoromethyl)oxazol-5-yl)(4-(7-(trifluoromethoxy)benzo[d]oxazol-2-yl)-6,7-dihydro-1H-imidazo[4,5-c]pyridin-5(4H)-yl)methanone] the figure was not above 500 nM; with `O=C(c1ccnn1C(F)F)N1CCc2[nH]cnc2[C@H]1c1nc2ccc(F)c(F)c2o1` [Example 513, (S)-(4-(6,7-difluorobenzo[d]oxazol-2-yl)-6,7-dihydro-1H-imidazo[4,5-c]pyridin-5(4H)-yl)(1-(difluoromethyl)-1H-pyrazol-5-yl)methanone], 500 to 1000 nM; with `O=C(c1cnco1)N1CCc2[nH]cnc2[C@H]1c1nc2ccccc2o1` [Example 547, (S)-(4-(benzo[d]oxazol-2-yl)-6,7-dihydro-1H-imidazo[4,5-c]pyridin-5(4H)-yl)(oxazol-5-yl)methanone], 500 to 1000 nM. As to `CC(C)(C#N)c1nc(C(F)F)c(C(=O)N2CCc3[nH]cnc3[C@H]2c2nc3cc(F)ccc3o2)o1` [Example 159, (S)-2-(4-(difluoromethyl)-5-(4-(5-fluorobenzo[d]oxazol-2-yl)-4,5,6,7-tetrahydro-1H-imidazo[4,5-c]pyridine-5-carbonyl)oxazol-2-yl)-2-methylpropanenitrile], the AC50 is not above 500 nM. Take `Cc1ccc2oc([C@@H]3c4nc[nH]c4CCN3C(=O)c3ncnn3C)nc2c1` [Example 745, (S)-(1-methyl-1H-1,2,4-triazol-5-yl)(4-(5-methylbenzo[d]oxazol-2-yl)-6,7-dihydro-1H-imidazo[4,5-c]pyridin-5(4H)-yl)methanone]: the concentration at half-maximal activity (AC50) was in the range of 500 to 1000 nM. In the case of `Cn1nc(Br)nc1C(=O)N1CCc2[nH]cnc2[C@H]1c1nc2cccc(F)c2o1` [Example 473, (S)-(3-bromo-1-methyl-1H-1,2,4-triazol-5-yl)(4-(7-fluorobenzo[d]oxazol-2-yl)-6,7-dihydro-1H-imidazo[4,5-c]pyridin-5(4H)-yl)methanone], the half-maximal activity concentration (AC50) was in the range of 500 to 1000 nM. The same measure, in the same setting: the result for `O=C(c1nnc(-c2ncccc2F)o1)N1CCc2[nH]cnc2[C@H]1c1nc2cccc(F)c2o1` [Example 868, (S)-(4-(7-fluorobenzo[d]oxazol-2-yl)-6,7-dihydro-1H-imidazo[4,5-c]pyridin-5(4H)-yl)(5-(3-fluoropyridin-2-yl)-1,3,4-oxadiazol-2-yl)methanone] reads not above 500 nM. With `O=C(c1ccnn1C(F)F)N1CCc2[nH]cnc2[C@H]1c1nc2c(F)ccc(F)c2o1` [Example 487, (S)-(4-(4,7-difluorobenzo[d]oxazol-2-yl)-6,7-dihydro-1H-imidazo[4,5-c]pyridin-5(4H)-yl)(1-(difluoromethyl)-1H-pyrazol-5-yl)methanone], the AC50 was not above 500 nM. For `Cc1cccc2nc([C@H]3c4nc[nH]c4CCN3C(=O)c3nc(C(F)F)nn3C)oc12` [Example 614, (R)-(3-(difluoromethyl)-1-methyl-1H-1,2,4-triazol-5-yl)(4-(7-methylbenzo[d]oxazol-2-yl)-6,7-dihydro-1H-imidazo[4,5-c]pyridin-5(4H)-yl)methanone], the AC50 is 1000 to 5000 nM. Turning to `CC(C)(F)c1nnc(C(=O)N2CCc3[nH]cnc3[C@@H]2c2nc3c(F)ccc(F)c3o2)o1` [Example 809, (R)-(4-(4,7-difluorobenzo[d]oxazol-2-yl)-6,7-dihydro-1H-imidazo[4,5-c]pyridin-5(4H)-yl)(5-(2-fluoropropan-2-yl)-1,3,4-oxadiazol-2-yl)methanone], the AC50 is not above 500 nM.

On to `Cc1nc(C(=O)N2CCc3[nH]cnc3[C@H]2c2nc3c(C)cccc3o2)n(C)n1` [Example 819, (S)-(1,3-dimethyl-1H-1,2,4-triazol-5-yl)(4-(4-methylbenzo[d]oxazol-2-yl)-6,7-dihydro-1H-imidazo[4,5-c]pyridin-5(4H)-yl)methanone], for which the concentration at half-maximal activity (AC50) was in the range of 500 to 1000 nM.

Consider `O=C(c1cnn2cc(N3CCC(O)CC3)ccc12)N1CCc2[nH]cnc2[C@@H]1c1nc2cc(F)cc(F)c2o1` [Example 700, (R)-(4-(5,7-difluorobenzo[d]oxazol-2-yl)-6,7-dihydro-1H-imidazo[4,5-c]pyridin-5(4H)-yl)(6-(4-hydroxypiperidin-1-yl)pyrazolo[1,5-a]pyridin-3-yl)methanone], for which the AC50 is not below 5000 nM. As to `Cc1ccc2oc([C@H]3c4nc[nH]c4CCN3C(=O)c3oc(-c4cnn(C)c4)nc3C(F)F)nc2c1` [Example 772, (R)-(4-(difluoromethyl)-2-(1-methyl-1H-pyrazol-4-yl)oxazol-5-yl)(4-(5-methylbenzo[d]oxazol-2-yl)-6,7-dihydro-1H-imidazo[4,5-c]pyridin-5(4H)-yl)methanone], the AC50 fell in the range of 500 to 1000 nM.

As to `CC(F)(F)c1ncc(C(=O)N2CCc3[nH]cnc3[C@@H]2c2nc3cc(F)ccc3o2)s1` [Example 36, (R)-(2-(1,1-difluoroethyl)thiazol-5-yl)(4-(5-fluorobenzo[d]oxazol-2-yl)-6,7-dihydro-1H-imidazo[4,5-c]pyridin-5(4H)-yl)methanone], the AC50 was in the range of 1000 to 5000 nM. For the compound `Cn1cc(-c2nnc(C(=O)N3CCc4[nH]cnc4[C@H]3c3nc4c(F)cccc4o3)o2)cn1` [Example 197, (S)-(4-(4-fluorobenzo[d]oxazol-2-yl)-6,7-dihydro-1H-imidazo[4,5-c]pyridin-5(4H)-yl)(5-(1-methyl-1H-pyrazol-4-yl)-1,3,4-oxadiazol-2-yl)methanone], the AC50 fell in the range of 500 to 1000 nM. For `O=C(c1nnc(-c2ccccn2)o1)N1CCc2[nH]cnc2[C@H]1c1nc2c(F)cc(F)cc2o1` [Example 523, (S)-(4-(4,6-difluorobenzo[d]oxazol-2-yl)-6,7-dihydro-1H-imidazo[4,5-c]pyridin-5(4H)-yl)(5-(pyridin-2-yl)-1,3,4-oxadiazol-2-yl)methanone], the AC50 fell in the range of 500 to 1000 nM. For the compound `Cc1ccc2oc([C@H]3c4nc[nH]c4CCN3C(=O)c3nnc(-c4ccc(F)cn4)o3)nc2c1` [Example 100, (R)-(5-(5-fluoropyridin-2-yl)-1,3,4-oxadiazol-2-yl)(4-(5-methylbenzo[d]oxazol-2-yl)-6,7-dihydro-1H-imidazo[4,5-c]pyridin-5(4H)-yl)methanone], the half-maximal activity concentration (AC50) was in the range of 1000 to 5000 nM.

Turning to `c1ccc2oc([C@@H]3c4nc[nH]c4CN3c3nc4ccccc4o3)nc2c1` (single isomer, unassigned) [Example 931], the AC50 lay within 1000 to 5000 nM. With `Cc1ccc2nc([C@@H]3c4nc[nH]c4CCN3C(=O)c3nnc(-c4ccccn4)o3)oc2c1` [Example 101, (S)-(4-(6-methylbenzo[d]oxazol-2-yl)-6,7-dihydro-1H-imidazo[4,5-c]pyridin-5(4H)-yl)(5-(pyridin-2-yl)-1,3,4-oxadiazol-2-yl)methanone], the AC50 lay in the range of 500 to 1000 nM.

Staying with this assay, now noted: A375 cells expressing R408W PAH; 24 hrs with compound, then 20 μM sepiapterin and 800 μM 13C9,15N-Phenylalanine for 4 hours; 13C-Tyrosine by LC-MS; average where tested multiple times.
As to `O=C(CCc1nccs1)N1CCc2[nH]cnc2C1c1nc2ccc(Br)cc2o1` (stereo not shown), the half-maximal activity concentration (AC50) is not below 5000 nM. `CC(C)(O)c1nc(C(F)F)c(C(=O)N2CCc3[nH]cnc3C2c2nc3cc(F)c(F)cc3o2)o1` (stereo not shown): the concentration at half-maximal activity (AC50) lay within 1000 to 5000 nM.

As for `O=C(c1cn[nH]c1C(F)F)N1CCc2[nH]cnc2C1c1nc2cc(F)ccc2o1` (stereo not shown), the AC50 fell in the range of 1000 to 5000 nM. For the compound `Cc1ccc2nc(C3c4nc[nH]c4CCN3C(=O)c3cncs3)oc2c1` (stereo not shown), the concentration at half-maximal activity (AC50) is not below 5000 nM.

On to `O=C1CN(Cc2ccc3c(C(=O)N4CCc5[nH]cnc5C4c4nc5cc(F)ccc5o4)cnn3c2)CCN1` (stereo not shown), for which the concentration at half-maximal activity (AC50) was not below 5000 nM. For `CC(C)(O)c1nc(Br)c(C(=O)N2CCc3[nH]cnc3C2c2nc3cc(F)ccc3o2)s1` (stereo not shown), the half-maximal activity concentration (AC50) is not below 5000 nM. As for `Nc1cc2c(C(=O)N3CCc4[nH]cnc4C3c3nc4cc(F)ccc4o3)cnn2cc1F` (stereo not shown), the AC50 fell in the range of 1000 to 5000 nM.

For the origin of these results see patent US20250171437A1 (Agios Pharmaceuticals,Inc., priority 2022, published 2025).
